Reference: patent publication US20070166547A1, “Use of a layer consisting of hydrophobic linear, or two-dimensional polycyclic aromatics as a barrier layer or an encapsulation and electric components constructed with a layer of this type and comprising organic polymers” (priority 2003, published 2007)

What was measured:
[1] = Chronic toxicity, rectal suppositories: biochemical indexes of blood serum; conditions: male rats, 1 month
Protocol: (§1) The experiments were conducted on inbred rats. The experimental animals were selected in groups by a method of random sampling taking into account the body mass as a determining index; 24 males or 24 females for one preparation from compounds 2, 15, 23, 34, 37 investigated in one dose.
(§2) Two doses of preparations used in the experiments: 50 mg/kg and 500 mg/kg. Before the administration, the suppositories were softened by heating in a glass water bath at a temperature of 38-39° C., the soft mass was collected in tuberculin syringe in a volume of 1 ml, a needle with oliva was attached to the syringe, and the preparatory mass was introduced into the rectum of the animal for a depth of 1.5-2.0 cm. The animals of the control group were administered with sterile medical liquid paraffin in a volume corresponding to the volume of the investigated suppository. A complete course of administration of drugs to the animals was two months. A complex of laboratory diagnostic investigations was carried out one month after the beginning of the administration of the preparation to the animal—in a middle of the course (8 animals), two months after ending the course (8 animals) and three months after ending the recovery period of one month (8 animals). The mass of the body of the rats in the first month of administration of the preparation was determined weekly, and then once in two weeks. On the basis of the dynamics of an index of the mass of the animal body, the volume of preparation being administered was corrected taking into account the test dose.

[2] = Chronic toxicity, rectal suppositories: indexes of urine; conditions: rats, 1 month after the administration
Protocol: as §1, §2

[3] = Chronic toxicity, rectal suppositories: indexes of peripheral blood; conditions: male rats; for Basophiles / Juveniles: 1 month/2 months (one value given)
Protocol: as §1, §2

[4] = suppositories 50 mg/kg, 1 month
[5] = suppositories 50 mg/kg, 2 months
[6] = suppositories 500 mg/kg, 1 month
[7] = suppositories 500 mg/kg, 2 months

Nc1ccnc2c(=O)n([C@@H]3O[C@H](CO)[C@@H](O)[C@H]3O)[nH]c(=O)c12 [Compound 2, 4-amino-7-(β-D-ribofuranosile)pyrido[2,3-d]-6H-pyridazine-5,8-dione]
ALT ([1]; suppositories 50 mg/kg): 10.84 ± 2.02 unit/l
AST ([1]; suppositories 50 mg/kg): 20.41 ± 3.06 unit/1
Alkalinous phosphatase ([1]; suppositories 50 mg/kg): 42.12 ± 4.23 unit/1
Bilirubin ([1]; suppositories 50 mg/kg): 44.38 ± 4.12
Cholesterol ([1]; suppositories 50 mg/kg): 2.77 ± 0.71 mmol/L
Creatinine ([1]; suppositories 50 mg/kg): 47.38 ± 3.26 mkmol/l
Glucose ([1]; suppositories 50 mg/kg): 9.85 ± 0.37 mM
Total protein ([1]; suppositories 50 mg/kg): 87.34 ± 5.56 g/L
Urea ([1]; suppositories 50 mg/kg): 11.02 ± 0.73
ALT ([1]; suppositories 500 mg/kg): 11.23 ± 1.70 unit/l
AST ([1]; suppositories 500 mg/kg): 20.13 ± 2.95 unit/1
Alkalinous phosphatase ([1]; suppositories 500 mg/kg): 43.4 ± 2.12 unit/1
Bilirubin ([1]; suppositories 500 mg/kg): 42.56 ± 7.56
Cholesterol ([1]; suppositories 500 mg/kg): 2.96 ± 0.52 mmol/L
Creatinine ([1]; suppositories 500 mg/kg): 49.87 ± 8.12 mkmol/l
Glucose ([1]; suppositories 500 mg/kg): 10.2 ± 0.74 mM
Total protein ([1]; suppositories 500 mg/kg): 70.84 ± 7.47 g/L
Urea ([1]; suppositories 500 mg/kg): 11.30 ± 0.80
Bilirubin (index of urine) ([2]; dose 50 mg/kg): <5 Mkmol/l
Glucose (index of urine) ([2]; dose 50 mg/kg): <5 mmol/L
Ketone bodies (index of urine) ([2]; dose 50 mg/kg): <1 mmol/L
Potassium (index of urine) ([2]; dose 50 mg/kg): 5.78 ± 1.7 g/L
Protein (index of urine) ([2]; dose 50 mg/kg): 0.69 ± 0.33 g/L
Sodium (index of urine) ([2]; dose 50 mg/kg): 1.7 ± 0.3 g/L
Urea (index of urine) ([2]; dose 50 mg/kg): 457 ± 144 mmol/L
Urobilinogen (index of urine) ([2]; dose 50 mg/kg): <16 Mkmol/l
pH (index of urine) ([2]; dose 50 mg/kg): 6.1 ± 0.3
Bilirubin (index of urine) ([2]; dose 500 mg/kg): <5 Mkmol/l
Glucose (index of urine) ([2]; dose 500 mg/kg): <5 mmol/L
Ketone bodies (index of urine) ([2]; dose 500 mg/kg): <1 mmol/L
Potassium (index of urine) ([2]; dose 500 mg/kg): 6.24 ± 1.8 g/L
Protein (index of urine) ([2]; dose 500 mg/kg): 0.76 ± 0.31 g/L
Sodium (index of urine) ([2]; dose 500 mg/kg): 1.27 ± 0.3 g/L
Urea (index of urine) ([2]; dose 500 mg/kg): 492 ± 187 mmol/L
Urobilinogen (index of urine) ([2]; dose 500 mg/kg): <16 Mkmol/l
pH (index of urine) ([2]; dose 500 mg/kg): 6.2 ± 0.2
Average volume of erythrocytes [3, 4]: 83.4 ± 1.4 Mkm^3
Coagulation, time [3, 4]: 145 ± 16 s
Eosinophiles [3, 4]: 3.4 ± 0.6%
Erythrocytes [3, 4]: 5.60 ± 2 mln/mm^3
Haematocrite [3, 4]: 47.8 ± 1.3%
Hemoglobin [3, 4]: 10.5 ± 0.1 mmol/L
Leukocyte [3, 4]: 16.0 ± 1.4 thousand/mm^3
REE [3, 4]: 1.9 ± 0.3 mm/h
Reticulocytes [3, 4]: 2.8 ± 0.2/2.8 ± 0.2%
Stab neutrophil [3, 4]: 0.8 ± 0.3%
Thrombocytes [3, 4]: 659 ± 26
Basophiles ([3]; suppositories 50 mg/kg): 0%
Juveniles ([3]; suppositories 50 mg/kg): 0%
Average volume of erythrocytes [3, 5]: 77.9 ± 2.1 Mkm^3
Coagulation, time [3, 5]: 322 ± 18 s
Eosinophiles [3, 5]: 4.2 ± 0.8%
Erythrocytes [3, 5]: 6.1 ± 0.1 mln/mm^3
Haematocrite [3, 5]: 47.9 ± 1.5%
Hemoglobin [3, 5]: 11.1 ± 0.1 mmol/L
Leukocyte [3, 5]: 19.3 ± 1.6 thousand/mm^3
REE [3, 5]: 1.7 ± 0.1 mm/h
Reticulocytes [3, 5]: 2.8 ± 0.2/2.8 ± 0.2%
Stab neutrophil [3, 5]: 1.7 ± 0.3%
Thrombocytes [3, 5]: 566 ± 20
Average volume of erythrocytes [3, 6]: 85.2 ± 1.2 Mkm^3
Coagulation, time [3, 6]: 149 ± 11 s
Eosinophiles [3, 6]: 3.2 ± 0.9%
Erythrocytes [3, 6]: 5.6 ± 0.1 mln/mm^3
Haematocrite [3, 6]: 47.5 ± 1.6%
Hemoglobin [3, 6]: 10.6 ± 0.1 mmol/L
Leukocyte [3, 6]: 15.6 ± 0.8 thousand/mm^3
REE [3, 6]: 2.1 ± 0.3 mm/h
Reticulocytes [3, 6]: 2.9 ± 0.3%
Stab neutrophil [3, 6]: 0.9 ± 0.2%
Thrombocytes [3, 6]: 681 ± 26
Basophiles ([3]; suppositories 500 mg/kg): 0%
Juveniles ([3]; suppositories 500 mg/kg): 0%
Average volume of erythrocytes [3, 7]: 72.0 ± 2.5 Mkm^3
Coagulation, time [3, 7]: 305 ± 13 s
Eosinophiles [3, 7]: 4.8 ± 1.6%
Erythrocytes [3, 7]: 6.5 ± 0.1 mln/mm^3
Haematocrite [3, 7]: 50.3 ± 2.0%
Hemoglobin [3, 7]: 12.3 ± 0.3 mmol/L
Leukocyte [3, 7]: 18.6 ± 1.9 thousand/mm^3
REE [3, 7]: 1.9 ± 0.1 mm/h
Reticulocytes [3, 7]: 3.5 ± 0.2%
Stab neutrophil [3, 7]: 1.1 ± 0.3%
Thrombocytes [3, 7]: 583 ± 25

O=c1[nH]n([C@@H]2O[C@H](CO)[C@@H](O)[C@H]2O)c(=O)c2nc(O)cnc12.[Na].[Na] [Compound 23, disodium salt of 2-hydroxy-7-(β-D-ribofuranosile)pyrazine[2,3-Cl]-6H-pyridazine-5,8-dione]
Average volume of erythrocytes [3, 4]: 82.7 ± 1.6 Mkm^3
Coagulation, time [3, 4]: 150 ± 15 s
Eosinophiles [3, 4]: 3.6 ± 0.5%
Erythrocytes [3, 4]: 5.7 ± 0.1 mln/mm^3
Haematocrite [3, 4]: 47.7 ± 1.2%
Hemoglobin [3, 4]: 10.7 ± 0.1 mmol/L
Leukocyte [3, 4]: 15.5 ± 1.1 thousand/mm^3
REE [3, 4]: 1.7 ± 0.8 mm/h
Reticulocytes [3, 4]: 2.7 ± 0.3%
Stab neutrophil [3, 4]: 1.1 ± 0.5%
Thrombocytes [3, 4]: 659 ± 18
Basophiles ([3]; suppositories 50 mg/kg): 0%
Juveniles ([3]; suppositories 50 mg/kg): 0%
Average volume of erythrocytes [3, 5]: 77.5 ± 1.7 Mkm^3
Coagulation, time [3, 5]: 313 ± 17 s
Eosinophiles [3, 5]: 4.0 ± 0.7%
Erythrocytes [3, 5]: 6.0 ± 0.2 mln/mm^3
Haematocrite [3, 5]: 46.5 ± 1.3%
Hemoglobin [3, 5]: 11.0 ± 0.1 mmol/L
Leukocyte [3, 5]: 17.6 ± 1.2 thousand/mm^3
REE [3, 5]: 1.5 ± 0.1 mm/h
Reticulocytes [3, 5]: 2.8 ± 0.1%
Stab neutrophil [3, 5]: 1.6 ± 0.2%
Thrombocytes [3, 5]: 586 ± 28
Average volume of erythrocytes [3, 6]: 83.5 ± 1.7 Mkm^3
Coagulation, time [3, 6]: 156 ± 11 s
Eosinophiles [3, 6]: 3.3 ± 0.7%
Erythrocytes [3, 6]: 5.7 ± 0.2 mln/mm^3
Haematocrite [3, 6]: 47.9 ± 1.1%
Hemoglobin [3, 6]: 10.7 ± 0.2 mmol/L
Leukocyte [3, 6]: 16.4 ± 1.1 thousand/mm^3
REE [3, 6]: 2.0 ± 0.3 mm/h
Reticulocytes [3, 6]: 3.1 ± 0.1%
Stab neutrophil [3, 6]: 1.0 ± 0.3%
Thrombocytes [3, 6]: 678 ± 18
Basophiles ([3]; suppositories 500 mg/kg): 0%
Juveniles ([3]; suppositories 500 mg/kg): 0%
Average volume of erythrocytes [3, 7]: 82.1 ± 1.4 Mkm^3
Coagulation, time [3, 7]: 3171 ± 12 s
Eosinophiles [3, 7]: 3.8 ± 1.3%
Erythrocytes [3, 7]: 6.4 ± 0.2 mln/mm^3
Haematocrite [3, 7]: 49.4 ± 1.9%
Hemoglobin [3, 7]: 12.3 ± 0.3 mmol/L
Leukocyte [3, 7]: 20.1 ± 1.7 thousand/mm^3
REE [3, 7]: 1.7 ± 0.3 mm/h
Reticulocytes [3, 7]: 3.4 ± 0.1%
Stab neutrophil [3, 7]: 1.6 ± 0.2%
Thrombocytes [3, 7]: 628 ± 23
